Measurements taken from US11752188B2, “Compositions and methods for nutritional supplements” (DailyColors Health Inc., priority 2020, dated 2023).
Read-outs that look alike come from different tables or passages of the source. One block for each compound: values may come before it.

Legend:
[1] = target: T1, recombinant human CD38 (Homo sapiens, UniProt P28907); assay: CD38 hydrolase in vitro enzymatic assay (ε-NAD+ substrate); format: biochemical
T1 construct: purchased 71277
T1 sequence (P28907 1-300): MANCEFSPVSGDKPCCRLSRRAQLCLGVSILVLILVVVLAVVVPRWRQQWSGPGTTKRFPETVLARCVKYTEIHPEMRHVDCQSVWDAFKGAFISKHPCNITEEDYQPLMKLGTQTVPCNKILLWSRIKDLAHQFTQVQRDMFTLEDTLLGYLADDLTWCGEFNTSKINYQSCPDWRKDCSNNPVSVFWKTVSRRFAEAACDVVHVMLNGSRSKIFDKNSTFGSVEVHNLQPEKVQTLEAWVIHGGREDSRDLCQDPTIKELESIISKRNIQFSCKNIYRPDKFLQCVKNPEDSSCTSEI
Description: Here, DC-5=Yellow Blend, DC-9=Purple Blend, DC-21-Green Blend, DC-13=Red Blend DCH-TIV 1.0 (Adult Centrum Multivitamins). The red blend included Apple Extract, Pomegranate Extract, Tomato Powder, Beet; the green blend included Olive Extract, Rosemary Extract, Green Coffee Bean Extract, Kale; the orange/yellow blend included Onion Extract, Ginger Extract, Grapefruit Extract, Carrot; and the purple/blue blend included Grape, Blueberry Extract, Currant, and Elderberry as listed above.
Assay Conditions: 10 μl of the sample or reference inhibitor was added to 20 μl of enzyme solution and pre-incubated for 30 minutes. The enzymatic reactions were started by the addition of 20 μl of the substrate ε-NAD+, for a total reaction volume of 50 μl. Reaction time was 10 minutes, and then fluorescence intensity at an excitation of 300 nm and an emission of 410 nm was read using a Tecan Infinite M1000 microplate reader.
(§1) Data Analysis: Enzyme activity assays were performed in duplicates at each concentration. The fluorescence intensity data were analyzed and compared. In the absence of the compound, the intensity in each data set was defined as 100% (Ce) activity. In the absence of enzyme, the intensity in each data set was defined as 0% (C0) activity. […] Compound fluorescence was removed by subtracting fluorescence at reaction time=0.

[2] = target: recombinant human Cathepsin S (Homo sapiens, UniProt P25774); assay: Cathepsin S in vitro enzymatic assay (fluorogenic substrate); format: biochemical
Protocol: Assay Conditions: Cathepsin S was activated by diluting the concentrated storage stock into the acidic assay buffer for 30 minutes at room temperature. Then, 5 μl of the sample or reference inhibitor was added to 20 μl of enzyme solution and pre-incubated for 30 minutes. The enzymatic reactions were started by the addition of 25 μl of the fluorogenic substrate, for a total reaction volume of 50 μl. Reaction time was 60 minutes, and then fluorescence intensity at an excitation of 360 nm and an emission of 460 nm was read using a Tecan Infinite M1000 microplate reader.
as §1

Chain of recombinant human Cathepsin S (P25774 115-331): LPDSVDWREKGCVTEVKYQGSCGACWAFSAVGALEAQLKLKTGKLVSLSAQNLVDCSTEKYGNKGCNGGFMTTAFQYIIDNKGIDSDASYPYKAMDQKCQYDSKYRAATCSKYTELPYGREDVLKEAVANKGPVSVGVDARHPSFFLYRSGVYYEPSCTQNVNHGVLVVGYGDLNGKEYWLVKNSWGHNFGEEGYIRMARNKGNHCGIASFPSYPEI

Net Signal (Fluorescence counts) Repeat 1 ([1]; 1 μM, Table 61): 3461 Fluorescence counts
Net Signal (Fluorescence counts) Repeat 2 ([1]; 1 μM, Table 61): 3761 Fluorescence counts
inhibition at 1 µM ([1]; 1 μM, Table 61): 14%
activity at 1 µM ([1]; 1 μM, Table 61, read-out: Activity (%) Repeat 1): 82%
activity at 1 µM ([1]; 1 μM, Table 61, read-out: Activity (%) Repeat 2): 89%
Net Signal (Fluorescence counts) Repeat 1 ([1]; 1 μM, Table 62): 8650 Fluorescence counts
Net Signal (Fluorescence counts) Repeat 2 ([1]; 1 μM, Table 62): 8614 Fluorescence counts
inhibition at 1 µM ([1]; 1 μM, Table 62): 6%
activity at 1 µM ([1]; 1 μM, Table 62, read-out: Activity (%) Repeat 1): 94%
activity at 1 µM ([1]; 1 μM, Table 62, read-out: Activity (%) Repeat 2): 94%
Net Signal (Fluorescence counts) Repeat 1 ([1]; 1 μM, Table 63): 11531 Fluorescence counts
Net Signal (Fluorescence counts) Repeat 2 ([1]; 1 μM, Table 63): 11647 Fluorescence counts
inhibition at 1 µM ([1]; 1 μM, Table 63): 14%
activity at 1 µM ([1]; 1 μM, Table 63, read-out: Activity (%) Repeat 1): 86%
activity at 1 µM ([1]; 1 μM, Table 63, read-out: Activity (%) Repeat 2): 86%
Net Signal (Fluorescence counts) Repeat 1 ([1]; 1 μM, TABLE 64): 4138 counts
Net Signal (Fluorescence counts) Repeat 2 ([1]; 1 μM, TABLE 64): 3883 counts
inhibition at 1 µM ([1]; 1 μM, TABLE 64): 8%
activity at 1 µM ([1]; 1 μM, TABLE 64, read-out: Activity (%) Repeat 1): 95%
activity at 1 µM ([1]; 1 μM, TABLE 64, read-out: Activity (%) Repeat 2): 89%
Net Signal (Fluorescence counts) Repeat 1 ([1]; 10 μM, Table 61): 647 Fluorescence counts
Net Signal (Fluorescence counts) Repeat 2 ([1]; 10 μM, Table 61): 618 Fluorescence counts
inhibition at 10 µM ([1]; 10 μM, Table 61): 85%
activity at 10 µM ([1]; 10 μM, Table 61, read-out: Activity (%) Repeat 1): 15%
activity at 10 µM ([1]; 10 μM, Table 61, read-out: Activity (%) Repeat 2): 14%
Net Signal (Fluorescence counts) Repeat 1 ([1]; 10 μM, Table 62): 4670 Fluorescence counts
Net Signal (Fluorescence counts) Repeat 2 ([1]; 10 μM, Table 62): 5416 Fluorescence counts
inhibition at 10 µM ([1]; 10 μM, Table 62): 45%
activity at 10 µM ([1]; 10 μM, Table 62, read-out: Activity (%) Repeat 1): 51%
activity at 10 µM ([1]; 10 μM, Table 62, read-out: Activity (%) Repeat 2): 59%
Net Signal (Fluorescence counts) Repeat 1 ([1]; 10 μM, Table 63): 7118 Fluorescence counts
Net Signal (Fluorescence counts) Repeat 2 ([1]; 10 μM, Table 63): 7228 Fluorescence counts
inhibition at 10 µM ([1]; 10 μM, Table 63): 47%
activity at 10 µM ([1]; 10 μM, Table 63, read-out: Activity (%) Repeat 1): 53%
activity at 10 µM ([1]; 10 μM, Table 63, read-out: Activity (%) Repeat 2): 54%
Net Signal (Fluorescence counts) Repeat 1 ([1]; 10 μM, TABLE 64): 3091 counts
Net Signal (Fluorescence counts) Repeat 2 ([1]; 10 μM, TABLE 64): 3057 counts
inhibition at 10 µM ([1]; 10 μM, TABLE 64): 30%
activity at 10 µM ([1]; 10 μM, TABLE 64, read-out: Activity (%) Repeat 1): 70%
activity at 10 µM ([1]; 10 μM, TABLE 64, read-out: Activity (%) Repeat 2): 70%
Net Signal (Fluorescence counts) Repeat 1 ([1]; 100 μM, Table 61): 185 Fluorescence counts
Net Signal (Fluorescence counts) Repeat 2 ([1]; 100 μM, Table 61): 135 Fluorescence counts
inhibition at 100 µM ([1]; 100 μM, Table 61): 96%
activity at 100 µM ([1]; 100 μM, Table 61, read-out: Activity (%) Repeat 1): 4%
activity at 100 µM ([1]; 100 μM, Table 61, read-out: Activity (%) Repeat 2): 3%
Net Signal (Fluorescence counts) Repeat 1 ([1]; 100 μM, Table 62): 1979 Fluorescence counts
Net Signal (Fluorescence counts) Repeat 2 ([1]; 100 μM, Table 62): 2165 Fluorescence counts
inhibition at 100 µM ([1]; 100 μM, Table 62): 78%
activity at 100 µM ([1]; 100 μM, Table 62, read-out: Activity (%) Repeat 1): 21%
activity at 100 µM ([1]; 100 μM, Table 62, read-out: Activity (%) Repeat 2): 23%
Net Signal (Fluorescence counts) Repeat 1 ([1]; 100 μM, Table 63): 5012 Fluorescence counts
Net Signal (Fluorescence counts) Repeat 2 ([1]; 100 μM, Table 63): 5473 Fluorescence counts
inhibition at 100 µM ([1]; 100 μM, Table 63): 61%
activity at 100 µM ([1]; 100 μM, Table 63, read-out: Activity (%) Repeat 1): 37%
activity at 100 µM ([1]; 100 μM, Table 63, read-out: Activity (%) Repeat 2): 40%
Net Signal (Fluorescence counts) Repeat 1 ([1]; 100 μM, TABLE 64): 632 counts
Net Signal (Fluorescence counts) Repeat 2 ([1]; 100 μM, TABLE 64): 728 counts
inhibition at 100 µM ([1]; 100 μM, TABLE 64): 85%
activity at 100 µM ([1]; 100 μM, TABLE 64, read-out: Activity (%) Repeat 1): 14%
activity at 100 µM ([1]; 100 μM, TABLE 64, read-out: Activity (%) Repeat 2): 16%
Compound: O=c1cc(-c2ccc(O)cc2)oc2cc(O)cc(O)c12 [Apigenin]

Activity (%) Repeat 1 ([2]; 1 nM, Table 35): 98%
Activity (%) Repeat 2 ([2]; 1 nM, Table 35): 95%
Inhibition (%) ([2]; 1 nM, Table 35): 4%
Net Signal (Fluorescence counts) Repeat 1 ([2]; 1 nM, Table 35): 9894 Fluorescence counts
Net Signal (Fluorescence counts) Repeat 2 ([2]; 1 nM, Table 35): 9604 Fluorescence counts
Activity (%) Repeat 1 ([2]; 1 nM, Table 36): 99%
Activity (%) Repeat 2 ([2]; 1 nM, Table 36): 100%
Inhibition (%) ([2]; 1 nM, Table 36): 1%
Net Signal (Fluorescence counts) Repeat 1 ([2]; 1 nM, Table 36): 8864 Fluorescence counts
Net Signal (Fluorescence counts) Repeat 2 ([2]; 1 nM, Table 36): 8931 Fluorescence counts
Activity (%) Repeat 1 ([2]; 0.001 μM, Table 37): 88%
Activity (%) Repeat 2 ([2]; 0.001 μM, Table 37): 83%
Inhibition (%) ([2]; 0.001 μM, Table 37): 15%
Net Signal (Fluorescence counts) Repeat 1 ([2]; 0.001 μM, Table 37): 52418 Fluorescence counts
Net Signal (Fluorescence counts) Repeat 2 ([2]; 0.001 μM, Table 37): 49644 Fluorescence counts
Activity (%) Repeat 1 ([2]; 10 nM, Table 35): 51%
Activity (%) Repeat 2 ([2]; 10 nM, Table 35): 54%
Inhibition (%) ([2]; 10 nM, Table 35): 48%
Net Signal (Fluorescence counts) Repeat 1 ([2]; 10 nM, Table 35): 5170 Fluorescence counts
Net Signal (Fluorescence counts) Repeat 2 ([2]; 10 nM, Table 35): 5444 Fluorescence counts
Activity (%) Repeat 1 ([2]; 10 nM, Table 36): 64%
Activity (%) Repeat 2 ([2]; 10 nM, Table 36): 59%
Inhibition (%) ([2]; 10 nM, Table 36): 38%
Net Signal (Fluorescence counts) Repeat 1 ([2]; 10 nM, Table 36): 5727 Fluorescence counts
Net Signal (Fluorescence counts) Repeat 2 ([2]; 10 nM, Table 36): 5326 Fluorescence counts
Activity (%) Repeat 1 ([2]; 0.01 μM, Table 37): 36%
Activity (%) Repeat 2 ([2]; 0.01 μM, Table 37): 33%
Inhibition (%) ([2]; 0.01 μM, Table 37): 66%
Net Signal (Fluorescence counts) Repeat 1 ([2]; 0.01 μM, Table 37): 21262 Fluorescence counts
Net Signal (Fluorescence counts) Repeat 2 ([2]; 0.01 μM, Table 37): 19656 Fluorescence counts
Activity (%) Repeat 1 ([2]; 0.1 μM, Table 37): 5%
Activity (%) Repeat 2 ([2]; 0.1 μM, Table 37): 6%
Inhibition (%) ([2]; 0.1 μM, Table 37): 95%
Net Signal (Fluorescence counts) Repeat 1 ([2]; 0.1 μM, Table 37): 3091 Fluorescence counts
Net Signal (Fluorescence counts) Repeat 2 ([2]; 0.1 μM, Table 37): 3478 Fluorescence counts
Activity (%) Repeat 1 ([2]; 100 nM, Table 35): 9%
Activity (%) Repeat 2 ([2]; 100 nM, Table 35): 9%
Inhibition (%) ([2]; 100 nM, Table 35): 91%
Net Signal (Fluorescence counts) Repeat 1 ([2]; 100 nM, Table 35): 958 Fluorescence counts
Net Signal (Fluorescence counts) Repeat 2 ([2]; 100 nM, Table 35): 960 Fluorescence counts
Activity (%) Repeat 1 ([2]; 100 nM, Table 36): 11%
Activity (%) Repeat 2 ([2]; 100 nM, Table 36): 12%
Inhibition (%) ([2]; 100 nM, Table 36): 89%
Net Signal (Fluorescence counts) Repeat 1 ([2]; 100 nM, Table 36): 1009 Fluorescence counts
Net Signal (Fluorescence counts) Repeat 2 ([2]; 100 nM, Table 36): 1033 Fluorescence counts
Compound: CC(C)C[C@H](NC(=O)[C@H]1O[C@@H]1C(=O)O)C(=O)NCCCCN=C(N)N [E-64]
